Reference: US20260125375A1 (Pfizer Inc., priority 2022, published 2026)
Read-outs that look alike come from different tables or passages of the source.

Columns and labels:
C-CBL = molecular target: T1, C-CBL (Homo sapiens, UniProt P22681); assay: Jurkat HiBit-IL2 assay (CBL-B KO), reporter cell line expressing C-CBL only; assay type: cell-based; settings: geometric mean, read-out: CBL-B KO EC50 (nM) GMean
T1 construct: endogenous in cells; host or cells: Jurkat HiBit-IL2 reporter cells, CBL-B knocked out by CRISPR
Text: (§1) Jurkat HiBit-IL2 Assay (WT, c-CBL KO, CBL-B KO)
(§2) The purpose of the Jurkat HiBit-IL2 assay is to evaluate the effect of the inhibition of CBL-B and/or C-CBL on TCR/CD28 stimulated interleukin-2 (IL-2) secretion.
(§3) The expression of IL-2 can then be accurately measured by HiBit luciferase assay. Further, C-CBL or CBL-B was knocked out by CRISPR respectively in this Jurkat HiBit-IL2 reporter cell line to create reporter cell line expressing CBL-B only (c-CBL knockout (KO)) or C-CBL only (CBL-B KO).
(§4) All three reporter cell lines were maintained in RPMI-1640 media with GlutaMax, 10% fetal bovine serum, 100 units/ml of penicillin, and 100 μg/ml of streptomycin at 37° C., 5% CO2, at a cell density 1×10e5-2×10e6 viable cells/ml. Serial diluted compounds in DMSO (40 nl/well, final 0.1% DMSO in assay cell culture) were plated into 384-well white-wall clear-bottom cell culture plates. Reporter cells were pelleted and resuspended in fresh cell culture medium to 0.66×10e6 cells/ml and added to the assay plate at 30 μl/well (20,000 cells/well). The cells were incubated with compounds for 1 hour at 37° C., 5% CO2. 10 μl/well of anti-CD3 antibody (OKT3) and anti-CD28 antibody (CD28.2) prediluted in fresh cell culture medium at 4× final concentration (anti-CD3 mAb: 4 μg/ml; anti-CD28 mAb: 8 μg/ml) was added into the cells (final concentration of anti-CD3 mAb: 1 μg/ml; anti-CD28 mAb: 2 μg/ml). The cells were cultured for another 4 hours at 37° C., 5% CO2. The Nano-Glo HiBiT Lytic Reagent was prepared following the manufacturer's protocol. 20 ul/well of the Nano-Glo HiBiT Lytic Reagent was added into the reporter cell culture assay plate and incubated at room temperature (20-25° C.) for 15 minutes. The plates were read on a Perkin-Elmer EnVision plate reader with 0.1 second integration time. Data were normalized to “Fold of Effect” with the anti-CD3 and anti-CD28 antibodies only samples as the baseline activation level and EC50 was calculated. The EC50 (nM) values reported are the geometric means (GMean) of the number of tests conducted.

CBL-B (residues 36-427) = molecular target: T2, CBL-B (residues 36-427) (Homo sapiens, UniProt Q13191); assay: Ligand Displacement Assay (LDA), HTRF competitive binding against BODIPY-labeled fluorescent tracer, CBL-B; settings: geometric mean of the number of tests, read-out: CBL-B Ki (nM) GMean
T2 construct: Purified CBL-B (residues 36-427) and C-CBL (residues 46-435) proteins from baculovirus-infected insect cells; made in house; host or cells: baculovirus-infected insect cells
Summary of the method: (§5)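 Terbium-streptavidin donor on BirA-biotinylated, AviTagged protein from baculovirus-infected insect cells; BODIPY tracer as acceptor. Compound titrations were three-fold and duplicated, […] with 2% DMSO final.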

CBL-B = molecular target: T3, CBL-B (Homo sapiens, UniProt Q13191); assay: Jurkat HiBit-IL2 assay (c-CBL KO), reporter cell line expressing CBL-B only; assay type: cell-based; settings: geometric mean, read-out: C-CBL KO EC50 (nM) GMean
T3 construct: endogenous in cells; host or cells: Jurkat HiBit-IL2 reporter cells, C-CBL knocked out by CRISPR
Text: as §1, §2, §3, §4

C-CBL (residues 46-435) = molecular target: T4, C-CBL (residues 46-435) (Homo sapiens, UniProt P22681); assay: Ligand Displacement Assay (LDA), HTRF competitive binding against BODIPY-labeled fluorescent tracer, C-CBL; settings: geometric mean of the number of tests, read-out: C-CBL Ki (nM) GMean
T4 construct: Purified CBL-B (residues 36-427) and C-CBL (residues 46-435) proteins from baculovirus-infected insect cells; made in house; host or cells: baculovirus-infected insect cells
T4 sequence (P22681 46-435): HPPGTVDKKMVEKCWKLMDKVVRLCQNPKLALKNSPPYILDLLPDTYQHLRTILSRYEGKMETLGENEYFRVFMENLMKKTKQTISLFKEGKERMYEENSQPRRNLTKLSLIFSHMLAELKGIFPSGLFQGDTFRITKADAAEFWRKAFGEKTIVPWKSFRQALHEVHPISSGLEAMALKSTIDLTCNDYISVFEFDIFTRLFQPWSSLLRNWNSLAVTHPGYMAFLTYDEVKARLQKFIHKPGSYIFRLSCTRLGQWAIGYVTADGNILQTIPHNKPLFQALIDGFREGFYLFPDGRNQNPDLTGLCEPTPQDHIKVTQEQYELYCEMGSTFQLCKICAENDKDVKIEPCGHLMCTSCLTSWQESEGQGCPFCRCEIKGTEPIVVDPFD
Summary of the method: as §5

C-CBL (46-435) = molecular target: T5, C-CBL (46-435) (Homo sapiens, UniProt P22681); assay: Surface Plasmon Resonance (SPR) assay, binding affinity and kinetics, C-CBL; settings: SPR at 10° C., biotinylated C-CBL (46-435) on streptavidin chip; geometric mean; read-out: C-CBL SPR Kd (nM) GMean
T5 construct: N-terminal biotinylated WT CBL-B (36-427) and C-CBL (46-435) were captured on a streptavidin (SA) coated sensor chip
T5 sequence (P22681 46-435): T4 sequence (P22681 46-435)
Summary of the method: (§6)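 SPR kinetics at 10° C, run either single-cycle (0.001–1 μM, 3-fold, 6 points, 120 s on, >5400 s off) or multi-cycle (10 points, 2-fold, top 10 or 100 μM, 90 s on). Proteins were N-biotinylated CBL-B (36-427) and C-CBL (46-435) on SA surfaces, in pH 7.2 HEPES, 2% DMSO.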

WT CBL-B (36-427) = molecular target: T6, WT CBL-B (36-427) (Homo sapiens, UniProt Q13191); assay: Surface Plasmon Resonance (SPR) assay, binding affinity and kinetics, CBL-B; settings: SPR at 10° C., biotinylated WT CBL-B (36-427) on streptavidin chip; geometric mean; read-out: CBL-B SPR Kd (nM) GMean
T6 construct: N-terminal biotinylated WT CBL-B (36-427) and C-CBL (46-435) were captured on a streptavidin (SA) coated sensor chip
Summary of the method: as §6

[1] = CBL-B KO (expressing C-CBL only), Table 16b (further repetition)
[2] = C-CBL KO (expressing CBL-B only), Table 16b (further repetition)
[3] = CBL-B KO (C-CBL only), anti-CD3/anti-CD28 stimulation 4 hours, Table 16a
[4] = c-CBL KO (CBL-B only), anti-CD3/anti-CD28 stimulation 4 hours, Table 16a

Compound	EC50 (C-CBL; [1]) [nM]	Ki (CBL-B (residues 36-427)) [nM]	EC50 (CBL-B; [2]) [nM]	Ki (C-CBL (residues 46-435)) [nM]	EC50 (C-CBL; [3]) [nM]	EC50 (CBL-B; [4]) [nM]	Kd (C-CBL (46-435)) [nM]	Kd (WT CBL-B (36-427)) [nM]
C[C@@H](c1nc(C(F)(F)F)cc2c(-c3cccc([C@H](c4nncn4C)C4CCC4)c3)n[nH]c12)N1CC[C@H](O)C1 (single isomer, unassigned) [Example D70]	618	7.1	163	48.4	–	–	–	–
C[C@@H](c1nc(C(F)(F)F)cc2c(-c3cccc([C@H](c4nncn4C)C4CCC4)c3)n[nH]c12)N1CC[C@@H](O)C1 (single isomer, unassigned) [Example D68]	1710	15.2	293	134	–	–	–	–
CC[C@H](c1cccc(-c2n[nH]c3c([C@H](C)NC[C@H](C)O)nc(C(F)(F)F)cc23)c1)c1nncn1C (single isomer, unassigned) [Example D76]	39	0.7	20	2.9	–	–	–	–
CC(N[C@H](C)[C@H](C)O)c1nc(C(F)(F)F)cc2c(-c3cccc([C@H](c4nncn4C)C4CCC4)c3)n[nH]c12 (single isomer, unassigned) [Example C48]	466	2.5	67	33	493	20	–	–
C[C@@H](N[C@@H]1COC[C@@H]1O)c1nc(C(F)(F)F)cc2c(-c3cccc([C@H](c4nncn4C)C4CCC4)c3)n[nH]c12 (single isomer, unassigned) [Example D56]	365	6.2	84	62.3	–	–	–	–
CC(NC1CCC1)c1nc(C2CC2)cc2c(-c3cccc(C4(Cc5nncn5C)COC4)c3)n[nH]c12 (single isomer, unassigned) [Example H3, N-{(1ξ)-1-[5-cyclopropyl-3-(3-{3-[(4-methyl-4H-1,2,4-triazol-3-yl)methyl]oxetan-3-yl}phenyl)-1H-pyrazolo[3,4-c]pyridin-7-yl]ethyl}cyclobutanamine]	415	8.1	231	28.8	392	49	–	–
C[C@H](N[C@H]1CC[C@@H]1O)c1nc(C(F)(F)F)cc2c(-c3cccc([C@H](c4nncn4C)C4CCC4)c3)n[nH]c12 (single isomer, unassigned) [Example D21]	1150	5.4	107	68.1	420	39	–	–
CC(NC(=O)CO)c1nc(C(F)(F)F)cc2c(-c3cccc([C@H](c4nncn4C)C4CCC4)c3)n[nH]c12 (single isomer, unassigned) [Example I1]	163	0.8	29	1.9	182	16	–	–
C[C@H](NC1(CO)CCC1)c1nc(C(F)(F)F)cc2c(-c3cccc([C@H](c4nncn4C)C4CCC4)c3)n[nH]c12 (single isomer, unassigned) [Example D72]	563	8.7	103	116	–	–	–	–
CC(NCCO)c1nc(C(F)(F)F)cc2c(-c3cccc([C@H](c4nncn4C)C4CCCCC4)c3)n[nH]c12 (single isomer, unassigned) [Example C40]	1560	7.1	214	95.9	1360	47	–	–
C[C@@H](O)CN[C@H](C)c1nc(C(F)(F)F)cc2c(-c3cccc([C@H](c4nncn4C)C4CCC4)c3)n[nH]c12 (single isomer, unassigned) [Example D26]	180	1.8	30	14	122	9	–	–
CC(NCC(C)(C)O)c1nc(C(F)(F)F)cc2c(-c3cccc([C@H](c4nncn4C)C4CCC4)c3)n[nH]c12 (single isomer, unassigned) [Example C45]	115	2.5	30	22.1	102	14	–	–
CC(NC[C@H](C)O)c1nc(C(F)(F)F)cc2c(-c3cccc([C@H](c4nncn4C)C4CCCCC4)c3)n[nH]c12 (single isomer, unassigned) [Example C99]	323	3.1	44	13.8	–	–	–	–
CCC(CC)(CO)N[C@H](C)c1nc(C(F)(F)F)cc2c(-c3cccc([C@H](c4nncn4C)C4CCC4)c3)n[nH]c12 (single isomer, unassigned) [Example D75]	1030	11	195	128	–	–	–	–
CC(NC(=O)[C@@H](C)O)c1nc(C(F)(F)F)cc2c(-c3cccc([C@H](c4nncn4C)C4CCC4)c3)n[nH]c12 (single isomer, unassigned) [Example I5]	299	2.7	62	22.9	–	–	–	–
C[C@H](c1nc(C(F)(F)F)cc2c(-c3cccc([C@H](c4nncn4C)C4CCC4)c3)n[nH]c12)N1CC[C@@H](O)C1 (single isomer, unassigned) [Example D69]	490	9.3	154	54.3	–	–	–	–
C[C@H](N[C@@H](C)CO)c1nc(C(F)(F)F)cc2c(-c3cccc([C@H](c4nncn4C)C4CCC4)c3)n[nH]c12 (single isomer, unassigned) [Example D27]	209	1	24	9.1	194	11	–	–
Cn1cnnc1[C@@H](c1cccc(-c2n[nH]c3c(CN[C@@H]4CCC(F)(F)C4)nc(C(F)(F)F)cc23)c1)C1CCC1 [Example C5, (1R)-N-{[3-{3-[(R)-cyclobutyl(4-methyl-4H-1,2,4-triazol-3-yl)methyl]phenyl}-5-(trifluoromethyl)-1H-pyrazolo[3,4-c]cyclopen-7-yl]methyl}-3,3-difluorocyclopentan-1-amine]	–	55.3	–	526	1250	–	203	3.4
